Source: article PMC7248705, “A Pharmacokinetic and Pharmacodynamic Evaluation of the Anti-Hepatocellular Carcinoma Compound 4-N-Carbobenzoxy-gemcitabine (Cbz-dFdC)” (Molecules, 2020)
Entries after “also recorded” stand apart in the source; their conditions may differ. Read-outs that look alike come from different tables or passages of the source.

Columns and labels:
[1] = Tissue distribution (liver, kidney, intestine); format: in vivo, SD rats; settings: rats
Description: In order to investigate the drug distribution in different tissues and the relationship between CES1 activity and tissue concentration, we conducted tissue distribution experiments. The SD rats were divided into six groups (n = 6 for each group). After a single intragastric administration of Cbz-dFdC (22 mg/kg) and a single injected administration of dFdC (15 mg/kg), the SD rats were sacrificed at 0.5 h, 1.5 h, and 4 h, and the liver, kidney, and intestine were collected. The liver was perfused with ice-cold normal saline and then removed, followed by ice-cold normal saline cleaning. The kidney and intestine were directly removed and then washed with ice-cold normal saline. All of the above operations were carried out on ice, and the removed tissue was stored in an ice bath. The liver, kidney, and intestine were cut and crushed, homogenized with an appropriate amount of phosphate buffer by a homogenizer, and then diluted 5 times with ice-cold PBS buffer (in an ice bath). The tissue homogenates were determined with a BCA kit for protein concentration, a CES1 kit for CES1 activity, and UFLC–MS/MS for drug tissue concentration after pretreatment; the pretreatment method was reported previously.

[2] = Enzymatic kinetics in vitro, rat kidney homogenate; format: in vitro ADME; settings: 37 °C, 30 min, 5–200 μM Cbz-dFdC
Description: (§1) The SD rats without any treatment were sacrificed after adapting to the environment. Blank blood, the liver, the kidney, and the intestine were collected and treated as described in Section 4.4. Part of the homogenate was removed for centrifugation for 20 min at 9000× g at 4 °C, and the supernatant was obtained as tissue S9. The tissue homogenate and S9 were diluted to […] after the protein concentration was determined by the BCA kit (Abcam, Cambridge, MA, USA). Each matrix consisted of 45 uL of the matrix mixed with 5 uL of the drug dissolved in normal saline solution for about 3 min, followed by incubation at 37 °C in a water bath. Then, acetonitrile containing the internal standard was added to terminate the reaction. Human tissue S9 and human CES1 recombinase purchased from the Ruid Liver Disease Research Co., Ltd. (Shanghai, China) were incubated under the same conditions. An enzyme kinetic study was obtained from the matrix following incubation at 37 °C for 30 min with 5, 10, 20, 50, 100, or 200 μM of Cbz-dFdC. We estimated the parameters and simulated curves according to the Eadie–Hofstee method.

[3] = Enzymatic kinetics in vitro, rat kidney S9; format: in vitro ADME; settings: 37 °C, 5–200 μM Cbz-dFdC
Description: as §1

[4] = Incubation in rat intestine homogenate and S9; format: in vitro ADME
Description: as §1

## O=C(Nc1ccn([C@@H]2O[C@H](CO)[C@@H](O)C2(F)F)c(=O)n1)OCc1ccccc1 [Cbz-dFdC, 4-N-carbobenzoxy-gemcitabine]
[1]; after i.g. Cbz-dFdC 22 mg/kg, liver, kidney, intestine, especially at 0.5 h
  Cbz-dFdC level in the intestine versus other tissues: significantly higher than that in the other tissues; also recorded: mainly distributed in the intestine
[1]; drug concentration in tissue lower than plasma concentration
  tissue penetration: weak tissue penetration
[2]
  Vmax, appearance of dFdC: 44.3 nmol/min/mg pro
  Vmax, disappearance of Cbz-dFdC: 162.7 nmol/min/mg pro
[2]; read-out: Km, appearance of dFdC
  Km: 48.9 µM
[2]; read-out: Km, disappearance of Cbz-dFdC
  Km: 148 µM
[2]; SD, read-out: Clint, disappearance of Cbz-dFdC
  microsomal CLint: 1100 µL/min/mg
[3]; 30 min
  Vmax, appearance of dFdC: 50.2 nmol/min/mg pro
  Vmax, disappearance of Cbz-dFdC: 206.5 nmol/min/mg pro
[3]; SD, read-out: Km, disappearance of Cbz-dFdC
  Km at 30 min: 269 µM
[3]; SD, 30 min, read-out: Clint, disappearance of Cbz-dFdC
  microsomal CLint: 770 µL/min/mg
[4]; concluded from tissue-specific CES expression, rats
  stability towards CES2 in rats: relatively stable in CES2
[4]; rat intestine homogenate and S9, dFdC not generated
  degradation in rat intestine homogenate and S9: essentially non-degradable
